Data set [1] can be described thus: Storage stability in pH7.4-PBS or pure water at 37° C., residual rate by HPLC. The class given is physicochemical. As to conditions: for Residual rate (%) After 1 week / Residual rate (%) After 2 weeks: 200 μmol/1, 37° C., protected from light; for Residual rate (%) Initial concentration: 200 μmol/1, initial concentration (100%) being a reference. The method, then: The storage stability of edaravone, EMPO, ED2AP, and BisEp-C3 of the following formula (A) were examined. Specifically, edaravone, EMPO, ED2AP, and BisEp-C3 were dissolved in pH7.4-PBS or pure water so as to have a final concentration of 200 μmol/1 to prepare dissolved solutions of these compounds. When the compounds were difficult to be dissolved, they were dissolved in an ultrasonic cleaner with warm water at 40° C.
Under the measurement conditions for High-Performance Liquid Chromatography (HPLC) described below, the initial concentration was quantified, and then each solution was stored in an oven, which was protected from light, at 37° C., and quantified under the same measurement conditions after 1 week and 2 weeks, to determine residual rate (%) with the initial concentration (100%) being a reference.
Measurement Conditions for HPLC
High-Performance Liquid Chromatography (Shimadzu Corporation)
Data-processing software (Model: LCsolution Ver. 1.0, produced by Shimadzu Corporation)
Pump (Model: LC-20AD; produced by Shimadzu Corporation)
Column oven (Model: CTO-20A; produced by Shimadzu Corporation)
Autosampler (Model: SIL-20A; produced by Shimadzu Corporation)
PDA detector (Format: SPD-M20A)
Column: Atlantis dC18 5 μm (250×4.6 mm I.D.; produced by Waters)
Column temperature: 45° C.
Detection method: UV (254 nm)
Eluate A: pH3 buffer solution (adjusted to pH3 by adding phosphoric acid to 0.05M KH2PO4 aqueous solution)/methanol=90/10

The test system of data set [2] is superoxide produced by the neutrophils. Briefly: Superoxide-eliminating ability of PBS solutions before and after storage for 10 days. The class given is cell-based, human. As to conditions: PBS solution stored for 10 days versus immediately after preparation, 0-200 μmol/1, FIG. 4. The procedure: First, ED2AP, BisEp-C3, edaravone, BisEp-C1, or BisEp-C1 (H2) was added to a neutrophil of 4×10^5 cells per sample so as to achieve a predetermined concentration (0, 12.5, 25, 50, 100, or 200 μmol/1, or 0, 125, 250, 500, 1,250, 2,500 or 5,000 μmol/1) with […] of CLA, and then the cell suspension was seeded in flat-bottomed 96-well plates. The volume of the suspension was 200 μl/well, and phenol red-free Ca+, Mg+ HBSS was used as the solution. In addition, the neutrophil was stimulated by adding PMA so as to achieve a concentration of 100 ng/ml. After the stimulation, a plate reader (Envision 2104 Multilabel Reader produced by Perkin Elmer Co., Ltd.) was used to measure the chemiluminescence value over time for 30 minutes with the PMA stimulation time being a reference. The measurement interval was 30 seconds. […] In addition, as a control, the superoxide production amount was measured in the same manner except that each compound was not added. The relative value of the superoxide production amount when each compound was added was calculated with the superoxide production amount of the control being 100.
PBS solutions of ED2AP, BisEp-C3, and edaravone were prepared in the same manner as in Example 2 and stored for 10 days. […] Then, the relative value of the superoxide production amount of each sample was calculated with the superoxide production amount of the sample of 0 μmol/1 being 100.

Molecules are shown by their SMILES.

Regarding `CCN1N=C(C)/C(=C\C=C\c2c(C)nn(CC)c2O)C1=O` [BisEp-C3, 2,4-dihydro-4-[3-(1-ethyl-5-hydroxy-3-methyl-1H-pyrazol-4-yl)-2-propen-1-ylidene]-2-ethyl-5-methyl-3H-pyrazol-3-one], in data set [1] (Pure water), the “Residual rate (%) After 1 week” value is recorded as 99.4%, the “Residual rate (%) After 2 weeks” value was 88.5% and the “Residual rate (%) Initial concentration” value turned out to be 100%. In data set [1] (pH 7.4-PBS), the “Residual rate (%) After 1 week” value amounted to 98.7%, the “Residual rate (%) After 2 weeks” value was 93.6% and the “Residual rate (%) Initial concentration” value was found to be 100%. For the same compound, in data set [2], the “superoxide-eliminating ability after storage” value is “maintained the superoxide-eliminating ability equivalent to that immediately after preparation”.

For `CC1=NN(c2ccccc2)C(=O)/C1=C/C=C/c1c(C)nn(-c2ccccc2)c1O` [ED2AP, 2,4-dihydro-4-[3-(5-hydroxy-3-methyl-1-phenyl-1H-pyrazol-4-yl)-2-propen-1-ylidene]-5-methyl-2-phenyl-3H-pyrazol-3-one], in data set [1] (Pure water), the “Residual rate (%) After 1 week” value came to 96.1%, the “Residual rate (%) After 2 weeks” value stood at 89.8% and the “Residual rate (%) Initial concentration” value worked out at 100%. Also, in data set [1] (pH 7.4-PBS), the “Residual rate (%) After 1 week” value is on record as 96.2%, the “Residual rate (%) After 2 weeks” value amounted to 91.3% and the “Residual rate (%) Initial concentration” value was 100%. For the same compound, the “superoxide-eliminating ability after storage” value in data set [2] was “maintained the superoxide-eliminating ability equivalent to that immediately after preparation”.
